This is an account of results in US20250188084A1, “COMPOUNDS AND METHODS FOR MODULATING CDK9 ACTIVITY” (KRONOS BIO, INC., priority 2020, published 2025).

SMILES strings stand for the structures.

Assay [1] has as its target T1, CDK9 (Homo sapiens, UniProt P50750).
T1 construct: NCIH211 cells with endogenously tagged N-terminal CDK9-HiBit; endogenous in cells; host or cells: NCIH211 cells (endogenous CDK9 locus tagged with HiBit)
The assay can be described thus: CDK9 degradation by HiBit assay, NCIH211 cells. The format is cell-based. The following applies: NCIH211 cells with endogenously tagged N-terminal CDK9-HiBit, 24 hours incubation, read-out: HiBit-NCIH211.2 DC50. As for the experimental part: (§1) Exemplary compounds of the invention were tested for degradation of CDK9. The compounds were tested in 10-dose DC50 duplicate mode with a 3-fold serial dilution starting at 10 μM by HiBit assay (Promega, Inc) as a direct measurement of CDK9 presence, with incubation time of 24 hours using either NCIH211 cells with endogenously tagged N-terminal CDK9-HiBit or NCIH1048 cells with endogenously tagged N-terminal CDK9-HiBit. A control compound (THAL-SNS-032, CAS 2139287-33-3) was tested in 10-dose DC50 mode with 3-fold serial dilution starting at 10 μM. Data was normalized to positive (medium only) and negative (cells with no treatment) controls and curve fits were analyzed with CDK9 as % response vs. log [compound concentration] using a 4-parameter logistic model by GraphPad software. For Table 2: A is <100, B is <1000 C is <10,000, D is >10,000 and ND is Not Determined.
For orientation: With HiBiT, luminescence reflects the tagged protein that the partner subunit can reach.

Assay [2] has as its target T1, CDK9. In words: CDK9 degradation by HiBit assay, NCIH1048 cells. The following applies: NCIH1048 cells with endogenously tagged N-terminal CDK9-HiBit, 24 hours incubation, read-out: HiBit-NCIH1048.3 DC50. The format is cell-based. As for the experimental part: as §1
Setting [3] is: numeric value (control compound).

T1 sequence (P50750 whole entry): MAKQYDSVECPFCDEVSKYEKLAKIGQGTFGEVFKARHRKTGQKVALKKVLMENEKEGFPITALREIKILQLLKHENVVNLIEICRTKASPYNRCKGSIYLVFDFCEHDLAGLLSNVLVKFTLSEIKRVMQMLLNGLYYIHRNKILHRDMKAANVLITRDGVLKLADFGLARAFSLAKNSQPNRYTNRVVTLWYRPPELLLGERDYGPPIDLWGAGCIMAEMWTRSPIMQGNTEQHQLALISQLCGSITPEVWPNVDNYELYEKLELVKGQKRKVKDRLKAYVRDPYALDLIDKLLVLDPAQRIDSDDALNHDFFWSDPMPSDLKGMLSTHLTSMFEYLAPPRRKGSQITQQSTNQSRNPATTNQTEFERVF
T1 sequence (O60563 whole entry partner): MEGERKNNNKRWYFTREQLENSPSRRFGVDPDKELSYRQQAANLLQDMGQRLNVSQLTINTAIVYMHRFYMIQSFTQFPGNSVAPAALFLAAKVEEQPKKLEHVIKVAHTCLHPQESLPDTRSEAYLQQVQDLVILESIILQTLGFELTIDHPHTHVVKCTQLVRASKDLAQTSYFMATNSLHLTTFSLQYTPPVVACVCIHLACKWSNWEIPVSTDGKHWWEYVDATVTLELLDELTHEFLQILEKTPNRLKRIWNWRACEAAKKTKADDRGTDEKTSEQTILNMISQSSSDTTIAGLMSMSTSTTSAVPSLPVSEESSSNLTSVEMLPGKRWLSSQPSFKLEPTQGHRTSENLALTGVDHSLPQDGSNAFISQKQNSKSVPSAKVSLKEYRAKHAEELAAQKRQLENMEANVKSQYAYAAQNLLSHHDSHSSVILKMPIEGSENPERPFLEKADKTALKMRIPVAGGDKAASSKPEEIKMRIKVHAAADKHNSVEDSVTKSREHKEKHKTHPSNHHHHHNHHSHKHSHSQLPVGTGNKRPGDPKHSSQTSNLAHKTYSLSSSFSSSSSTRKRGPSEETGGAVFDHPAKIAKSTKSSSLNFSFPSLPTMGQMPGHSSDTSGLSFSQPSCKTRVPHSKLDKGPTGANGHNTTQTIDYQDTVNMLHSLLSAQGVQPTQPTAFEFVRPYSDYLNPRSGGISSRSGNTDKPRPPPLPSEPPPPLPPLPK

Consider `CCC(CC)c1cc(N[C@H]2CC[C@H](NCC(=O)N3CCN(CCCCNc4cccc5c4C(=O)N(C4CCC(=O)NC4=O)C5=O)CC3)C2)n2nccc2n1` (some centres unmarked) [Compound 46.0], for which the DC50 in assay [1] is less than 1000 nM; in assay [2], less than 100 nM.
For the compound `CCC(CC)c1cc(N[C@H]2CC[C@H](NCC(=O)N3CCN(CCNc4cccc5c4C(=O)N(C4CCC(=O)NC4=O)C5=O)CC3)C2)n2nccc2n1` (some centres unmarked) [Compound 47.0], the DC50 was less than 1000 nM in assay [1] and less than 100 nM in assay [2].
On to `CCC(CC)c1cc(N[C@H]2CC[C@H](NCC(=O)N3CCN(CCCNc4cccc5c4C(=O)N(C4CCC(=O)NC4=O)C5=O)CC3)C2)n2nccc2n1` (some centres unmarked) [Compound 48.0], for which the DC50 was less than 1000 nM in assay [1] and less than 100 nM in assay [2].
For the compound `CCC(CC)c1cc(N[C@H]2CC[C@H](NCC(=O)N3CCN(CCCNc4cccc5c4C(=O)N(C4CCC(=O)NC4=O)C5=O)CC3)C2)n2ncc(Cl)c2n1` (some centres unmarked) [Compound 50.0], the DC50 in assay [1] and in assay [2] was less than 100 nM throughout.
Take `CCC(CC)c1cc(N[C@H]2CC[C@H](NCC(=O)NCCCc3cn(CCOCCOCCOc4cc(-c5scnc5C)ccc4CNC(=O)[C@@H]4C[C@@H](O)CN4C(=O)[C@H](C(C)C)N4Cc5ccccc5C4=O)nn3)C2)n2ncc(Cl)c2n1` [Compound 51.0]: the DC50 in assay [1] and in assay [2] was less than 10000 nM each time.
`CCC(CC)c1cc(N[C@H]2CC[C@H](NCC(=O)NCCCc3cn(CCOCCOc4cc(-c5scnc5C)ccc4CNC(=O)[C@@H]4C[C@@H](O)CN4C(=O)[C@H](C(C)C)N4Cc5ccccc5C4=O)nn3)C2)n2ncc(Cl)c2n1` [Compound 52.0]: the DC50 in assay [1] is greater than 10000 nM; in assay [2] it was less than 10000 nM.
In the case of `CCC(CC)c1cc(N[C@H]2CC[C@H](NCC(=O)NCCCc3cn(CCOCCOCCOCCOc4cc(-c5scnc5C)ccc4CNC(=O)[C@@H]4C[C@@H](O)CN4C(=O)[C@H](C(C)C)N4Cc5ccccc5C4=O)nn3)C2)n2ncc(Cl)c2n1` [Compound 53.0], the DC50 in assay [1] and in assay [2] was less than 10000 nM each time.
Regarding `CCC(CC)c1cc(N[C@H]2CC[C@H](NCC(=O)NCCCc3cn(CCOCCOCCOCCOCCOc4cc(-c5scnc5C)ccc4CNC(=O)[C@@H]4C[C@@H](O)CN4C(=O)[C@H](C(C)C)N4Cc5ccccc5C4=O)nn3)C2)n2ncc(Cl)c2n1` [Compound 54.0], the DC50 in assay [1] and in assay [2] was less than 10000 nM throughout.
Turning to `C/C=C(\CC)c1cc(N[C@H]2CC[C@H](NCC(=O)N3CCN(CCCCNc4cccc5c4C(=O)N(C4CCC(=O)NC4=O)C5=O)CC3)C2)n2nccc2n1` (some centres unmarked) [Compound 56.0], the DC50 in assay [1] and in assay [2] was less than 100 nM each time.
With `C/C=C(\CC)c1cc(N[C@H]2CC[C@H](NCC(=O)N3CCN(CCCNc4cccc5c4C(=O)N(C4CCC(=O)NC4=O)C5=O)CC3)C2)n2ncc(Cl)c2n1` (stereo partly drawn) [Compound 57.0, 4-[3-[4-[2-[[(1S,3S)-3-[[3-chloro-5-[(E)-1-ethylprop-1-enyl]pyrazolo[1,5-a]pyrimidin-7-yl]amino]cyclopentyl]amino]acetyl]piperazin-1-yl]propylamino]-2-(2,6-dioxo-3-piperidyl)isoindoline-1,3-dione], the DC50 in assay [1] and in assay [2] was less than 100 nM throughout.
With `C/C=C(\CC)c1cc(N[C@H]2CC[C@H](NCC(=O)N3CCN(CCNc4cccc5c4C(=O)N(C4CCC(=O)NC4=O)C5=O)CC3)C2)n2ncc(Cl)c2n1` (stereo partly drawn) [Compound 58.0, 4-[2-[4-[2-[[(1S,3S)-3-[[3-chloro-5-[(E)-1-ethylprop-1-enyl]pyrazolo[1,5-a]pyrimidin-7-yl]amino]cyclopentyl]amino]acetyl]piperazin-1-yl]ethylamino]-2-(2,6-dioxo-3-piperidyl)isoindoline-1,3-dione], the DC50 in assay [1] and in assay [2] was less than 100 nM each time.
As to `C/C=C(\CC)c1cc(N[C@H]2CC[C@H](NCC(=O)N3CCN(CCCCNc4cccc5c4C(=O)N(C4CCC(=O)NC4=O)C5=O)CC3)C2)n2ncc(Cl)c2n1` (stereo partly drawn) [Compound 59.0, 4-[4-[4-[2-[[(1S,3S)-3-[[3-chloro-5-[(E)-1-ethylprop-1-enyl]pyrazolo[1,5-a]pyrimidin-7-yl]amino]cyclopentyl]amino]acetyl]piperazin-1-yl]butylamino]-2-(2,6-dioxo-3-piperidyl)isoindoline-1,3-dione], the DC50 in assay [1] and in assay [2] was less than 100 nM throughout.
With `CC(C)(C)c1cnc(CSc2cnc(NC(=O)C3CCN(CC(=O)NCCOCCOCCOCCNc4cccc5c4C(=O)N(C4CCC(=O)NC4=O)C5=O)CC3)s2)o1` (centres unmarked) [THAL-SNS-032, reference compound], the DC50 was determined as 53 nM in assay [1] (setting [3]) and 11 nM in assay [2] (setting [3]).

Broadly, the DC50 is the concentration at which degradation of the target reaches its halfway point.
